Patent US7122173B2, “Agent for the treatment of bladder irritative symptoms accompanied by benign prostatic hyperplasia” (Kyowa Hakko Kogyo Co., Ltd., priority 2001, dated 2006)

Key:
[1] = system: rats with partial urethra obstruction; assay: Increased urinary frequency accompanied by partial bladder outlet obstruction (metabolism cage urination test); type: in vivo, rat
Procedure: The test was carried out in accordance with the method of Saito et al. (J. Urol., 150: 1045–1051 (1993)). Male SD rats of 8 to 9 weeks of age (supplied by Japan SLC) were used in the test. Five to seven animals of these rats were put in each metal cage and reared by allowing them to freely take commercially available chow and water, in a rearing room at a room temperature of from 19 to 25° C. and a humidity of from 30 to 70% under illumination for 12 hours (from 7 a.m. to 7 p.m.) per day. Partial urethra obstruction was induced in rats as a model of outlet obstruction mimicking BPH. Each rat was anesthetized by intraperitoneal administration of 50 mg/kg of pentobarbital sodium (Dainippon Pharmaceutical) and placed in dorsal position. The abdomen was cut in a length of about 1 cm by midline incision to expose the bladder, prostate and the urethra. The bladder neck and bladder base were peeled from the prostate, and two surgical sutures (No. 3, Natsume Seisakusho) were passed behind the urethra base. A polyethylene tube (PE-200; Becton Dickinson) was placed along the urethra, and the urethra was mildly double-ligated together with the tube. The ligation was carried out in such a manner that the urethra was not pressed by the polyethylene tube and the sutures were not loosened. The polyethylene tube was pulled out and the urethra was partially obstructed. The incised part of the abdomen was sutured with the surgical suture. Five to seven days after the partial urethra constriction operation, the rats subjected to partial urethra obstruction and those subjected to sham-operation were put in metabolism cages (KN-649, Natsume Seisakusho). For acclimatization, rats were reared for 1 day with free drinking and feeding, and the urination test was started on the next day. Using an electronic force balance (HF-200; A and D), the amount of urination by rats was continuously measured as weight, and -recorded on a thermal array recorder (RTA-1200; Nihon Kohden) via a direct current amplifier (AD-641G; Nihon Kohden). The light period (9 to 18 o'clock) under illumination and the dark period (19 to 4 o'clock) under lights off were used as the data collecting periods, and the number of micturition and the urinary volume during these periods were measured to calculate urinary frequency (frequency of micturition per 9 hours), voided volume per micturition and total urine volume as the measuring parameters. In this case, the voided volume per micturition was calculated by dividing the total urine volume per 9 hours by the urinary frequency per 9 hours. Compound 1 or a solvent (0.5 w/v % aqueous methyl cellulose 400 cP (average viscosity: 400 centipoises) solution) was administered twice on the next day between 8 to 9 o'clock and 18 to 19 o'clock, and the number of micturition and urine volume during 9 to 18 o'clock and 19 to 4 o'clock were measured to obtain measured values similarly to the case of the previous day. In the sham-operation group, the urinary frequency, voided volume per micturition and the total urine volume on the first day of the urination test were compared with those in the urethra obstruction group. The urinary frequency, voided volume per micturition and the total urine volume in each group were calculated as average ±standard error.

[2] = system: delayed rectifier K^+ channel; assay: Voltage clamp, delayed rectifier K+ currents in Fast Blue-labeled capsaicin-sensitive bladder afferent neurons; type: cell-based, rat; details: Compound 1 1.0 × 10^−6 mol/L
Procedure: (§1) Experiments were performed on adult female Sprague Dawley rats. First and second series of the experiments were performed, respectively, in unidentified DRG neurons and a specific population of DRG neurons innervating the urinary bladder. The population of DRG neurons that innervate the urinary bladder were labeled by retrograde axonal transport of the fluorescent dye, Fast Blue (4% w/v) (Polyloy, Gross Umstadt, Germany), injected into the wall of the bladder in halothane-anesthetized animals 7 days before the dissociation. The dye was injected with a 28 gauge needle at three to six sites on the dorsal surface of the organ (5–6 μL per site, total volume of 20–30 μL). Each injection site was washed with saline to minimize contamination of adjacent organs with the dye.
(§2) Freshly dissociated neurons from DRG were prepared from halothane-anesthetized animals. […]
(§3) Dye-labeled primary afferent neurons that innervate the urinary bladder were identified using an inverted phase-contrast microscope (Nikon, Tokyo, Japan) with fluorescent attachments (UV-1A filter; excitation wavelength, 365 nm). […] All recordings were made with an Axopatch-1D patch-clamp amplifier (Axon Instruments, Foster City, Calif.), and data were acquired and analyzed by PCLAMP software (Axon Instruments).
(§4) In voltage-clamp recordings, outward K^+ currents and inward Na^+ currents were measured. […]

[3] = system: slowly-inactivating A-type K^+ channel; assay: Voltage clamp, slowly-inactivating A-type K+ currents in Fast Blue-labeled capsaicin-sensitive bladder afferent neurons; type: cell-based, rat; details: Compound 1 1.0 × 10^−6 mol/L
Procedure: as §1, §2, §3, §4

[4] = Dark period (active period), after administration
[5] = Dark period (active period), before administration (baseline of the Compound 1 group)
[6] = Light period (inactive period), after administration
[7] = Light period (inactive period), before administration (baseline of the Compound 1 group)
[8] = rats with partial urethra obstruction

In the case of `C[C@](O)(C(=O)Nc1cccc2c1C(=O)c1sccc1CS2(=O)=O)C(F)(F)F` [Compound 1, (S)-(+)-N-(5,5-dioxido-10-oxo-4,10-dihydrothieno[3,2-c][1]benzothiepin-9-yl)-3,3,3-trifluoro-2-hydroxy-2-methylpropanamide], the Total urine volume [1, 4] is reported as 4.83 ± 0.83 mL/9 h, the Urinary frequency [1, 4] is reported as 6.7 ± 1.2 micturitions/9 h and the “Voided volume per micturition” value [1, 4] is reported as 0.771 ± 0.160 mL. The Total urine volume [1, 5] was 3.57 ± 0.57 mL/9 h, the Urinary frequency [1, 5] was 10.0 ± 1.3 micturitions/9 h and the “Voided volume per micturition” value [1, 5] was 0.362 ± 0.038 mL. For the same molecule, the Total urine volume [1, 6] was 4.76 ± 0.78 mL/9 h, the Urinary frequency [1, 6] was 5.3 ± 0.4 micturitions/9 h and the “Voided volume per micturition” value [1, 6] was 0.899 ± 0.127 mL. The Total urine volume [1, 7] was 4.80 ± 0.31 mL/9 h, the Urinary frequency [1, 7] was 8.7 ± 0.8 micturitions/9 h and the “Voided volume per micturition” value [1, 7] was 0.577 ± 0.064 mL. The “Effect on urinary frequency (in words)” value [1, 8] was “significantly reduced urinary frequency”, the “Effect on voided volume per micturition (in words)” value [1, 8] was “tended to increase voided volume per micturition” and the “Delayed rectifier HP: −40 mV, normalized to control” value [2] was 1.10 ± 0.01. The “A-type IK (HP: −120 mV) − (HP: −40 mV), normalized to control” value [3] was 1.26 ± 0.03.
